Experimental data as given in patent publication US8361998B2, “Compounds and their use as IKACh blockers” (AstraZeneca AB, priority 2010, dated 2013).

Biological target: T1, human cardiac ion channel proteins hKir3.1/Kir3.4 (Homo sapiens, UniProt P48544+P48549)
T1 construct: expressed in transfected cells
T1 sequence (P48549 1-501): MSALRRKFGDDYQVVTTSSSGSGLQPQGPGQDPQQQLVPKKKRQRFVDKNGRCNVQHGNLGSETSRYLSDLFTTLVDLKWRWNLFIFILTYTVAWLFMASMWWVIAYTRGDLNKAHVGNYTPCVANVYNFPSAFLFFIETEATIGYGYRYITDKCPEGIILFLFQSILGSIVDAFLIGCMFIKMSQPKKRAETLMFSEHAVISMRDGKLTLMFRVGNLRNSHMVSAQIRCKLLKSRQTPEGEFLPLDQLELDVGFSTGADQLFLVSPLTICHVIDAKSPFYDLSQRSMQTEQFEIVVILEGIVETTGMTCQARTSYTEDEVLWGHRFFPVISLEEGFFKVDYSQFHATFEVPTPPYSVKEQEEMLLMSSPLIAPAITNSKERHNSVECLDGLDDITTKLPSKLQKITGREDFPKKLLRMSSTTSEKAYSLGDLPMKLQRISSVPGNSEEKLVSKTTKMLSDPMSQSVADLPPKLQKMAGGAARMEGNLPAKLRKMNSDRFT
T1 sequence (P48544 1-419): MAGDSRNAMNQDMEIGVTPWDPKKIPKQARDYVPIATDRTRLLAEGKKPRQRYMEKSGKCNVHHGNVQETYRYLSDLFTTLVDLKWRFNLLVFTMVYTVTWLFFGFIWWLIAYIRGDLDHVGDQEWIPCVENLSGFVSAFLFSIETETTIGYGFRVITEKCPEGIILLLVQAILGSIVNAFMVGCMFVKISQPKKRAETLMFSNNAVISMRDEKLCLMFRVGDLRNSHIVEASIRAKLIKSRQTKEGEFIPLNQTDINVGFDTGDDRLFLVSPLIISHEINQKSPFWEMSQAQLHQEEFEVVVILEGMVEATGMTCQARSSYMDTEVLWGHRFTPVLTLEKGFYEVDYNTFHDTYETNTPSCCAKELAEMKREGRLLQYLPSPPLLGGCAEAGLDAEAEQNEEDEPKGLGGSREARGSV
Experiment: Atomic Absorption Screening (AAS) Rb efflux assay of hKir3.1/Kir3.4 block, carbachol/high K+ stimulated, 10-pt or 7-pt CR
Format: cell-based
Conditions: 10-pt CR (0.003 to 67 μmol/L), AAS Rb efflux, CHO-K1 cells expressing hKir3.1/Kir3.4; mean of >4 replicates; read-out: IKACh IC50 10-pt CR, AAS
Procedure, shortened: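 CHO-K1 cells stably co-expressing human Kir3.1/Kir3.4 were Rb-loaded for 3 h at 37° C, preincubated with compound 5 min at RT, then stimulated 10 min with 10 μM carbachol plus 20 mM KCl (final). Supernatant Rb was measured by atomic absorption. Compounds ran at 0.003–67 μmol/L (10-pt) or 0.037–27 μmol/L (7-pt), threefold dilutions; IC50s are means of >4 or >3 replicates respectively.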

| IC50 [µM] | Compound |
| --- | --- |
| 1.1 | CC(C)[C@@H](CN1CCC(O)CC1)N(C)C(=O)c1ccc(Cl)cc1 [Example 27, (S)-4-Chloro-N-(1-(4-hydroxypiperidin-1-yl)-3-methylbutan-2-yl)-N-methylbenzamide] |
| 19 | COCC1CN(C[C@H](C(C)C)N(C)C(=O)c2ccc(F)c(F)c2)C1 [Example 28, (S)-3,4-Difluoro-N-(1-(3-(methoxymethyl)azetidin-1-yl)-3-methylbutan-2-yl)-N-methylbenzamide] |
| 0.16 | CC[C@H](C)[C@@H](CN1CC(O)C1)N(C)C(=O)c1ccc(Cl)cc1 [Example 29.2, 4-Chloro-N-((2S,3S)-1-(3-hydroxyazetidin-1-yl)-3-methylpentan-2-yl)-N-methylbenzamide] |
| 0.22 | CCc1ccc(C(=O)N(C)[C@H](CN2CC(O)C2)[C@@H](C)CC)cc1 [Example 29.3, 4-Ethyl-N-((2S,3S)-1-(3-hydroxyazetidin-1-yl)-3-methylpentan-2-yl)-N-methylbenzamide] |
| 12 | CC[C@H](C)[C@@H](CN1CC(O)C1)N(C)C(=O)c1ccccc1 [Example 29.4, N-((2S,3S)-1-(3-Hydroxyazetidin-1-yl)-3-methylpentan-2-yl)-N-methylbenzamide] |
| 12 | CC[C@H](C)[C@@H](CN1CC(O)C1)N(C)C(=O)c1ccc(C#N)cc1 [Example 29.5, 4-Cyano-N-((2S,3S)-1-(3-hydroxyazetidin-1-yl)-3-methylpentan-2-yl)-N-methylbenzamide] |
| 1.6 | CC[C@H](C)[C@@H](CN1CC(O)C1)N(C)C(=O)c1ccc(OC)cc1 [Example 29.6, N-((2S,3S)-1-(3-Hydroxyazetidin-1-yl)-3-methylpentan-2-yl)-4-methoxy-N-methylbenzamide] |
| 11 | CC[C@H](C)[C@@H](CN1CC(O)C1)N(C)C(=O)c1cc(C)ccc1OC [Example 29.8, N-((2S,3S)-1-(3-Hydroxyazetidin-1-yl)-3-methylpentan-2-yl)-2-methoxy-N,5-dimethylbenzamide] |
| 16 | CC[C@H](C)[C@@H](CN1CC(O)C1)N(C)C(=O)c1cc(Cl)ccc1OC [Example 29.9, 5-Chloro-N-((2S,3S)-1-(3-hydroxyazetidin-1-yl)-3-methylpentan-2-yl)-2-methoxy-N-methylbenzamide] |
| 6.3 | CO[C@H](C)[C@@H](CN1CC(O)C1)N(C)C(=O)c1ccc(Cl)cc1 [Example 30, 4-Chloro-N-((2R,3R)-1-(3-hydroxyazetidin-1-yl)-3-methoxybutan-2-yl)-N-methylbenzamide] |
| 0.43 | CCC[C@@H](CN1CC(OCC)C1)N(C)C(=O)c1ccc(Cl)cc1 [Example 31.1, (S)-4-Chloro-N-(1-(3-ethoxyazetidin-1-yl)pentan-2-yl)-N-methylbenzamide] |
| 1.7 | CCC[C@@H](CN1CC(OCC#N)C1)N(C)C(=O)c1ccc(Cl)cc1 [Example 31.3, 4-chloro-N-{(2S)-1-[3-(cyanomethoxy)azetidin-1-yl]pentan-2-yl}-N-methylbenzamide] |
| 0.33 | CCC[C@@H](CN1CC(OC(C)C)C1)N(C)C(=O)c1ccc(Cl)cc1 [Example 31.4, 4-chloro-N-methyl-N-{(25)-1-[3-(propan-2-yloxy)azetidin-1-yl]pentan-2-yl}benzamide] |
| 0.12 | CCCC[C@@H](CN1CC(O)C1)N(C)C(=O)c1ccc(Cl)cc1 [Example 33.1, (S)-4-chloro-N-(1-(3-hydroxyazetidin-1-yl)hexan-2-yl)-N-methylbenzamide] |
| 11 | CCCC[C@@H](CN1CC(O)C1)N(C)C(=O)c1ccc(O)cc1 [Example 33.6, 4-Hydroxy-N-[(2S)-1-(3-hydroxyazetidin-1-yl)hexan-2-yl]-N-methylbenzamide] |
| 0.16 | CCCC[C@@H](CN1CC(O)C1)N(C)C(=O)c1ccc(F)c(Cl)c1 [Example 33.8, 3-Chloro-4-fluoro-N-[(2S)-1-(3-hydroxyazetidin-1-yl)hexan-2-yl]-N-methylbenzamide] |
| 3.3 | CCC[C@@H](CN1CC(O)C1)N(C(=O)c1ccc(Cl)cc1)C(C)C [Example 34.1, 4-Chloro-N-[(2S)-1-(3-hydroxyazetidin-1-yl)pentan-2-yl]-N-(propan-2-yl)benzamide] |
| 3.4 | CN(C(=O)c1ccc(Cl)cc1)[C@@H](CN1CC(O)C1)C1CCC1 [Example 35.1, 4-Chloro-N-[(1R)-1-cyclobutyl-2-(3-hydroxyazetidin-1-yl)ethyl]-N-methylbenzamide] |

Continued, compound first:

| Compound | IC50 [µM] |
| --- | --- |
| CCC[C@@H](CN1CC(O)C1)N(C)C(=O)c1ccc(C)c(C)c1 [Example 23, (S)—N-(1-(3-Hydroxyazetidin-1-yl)pentan-2-yl)-N,3,4-trimethylbenzamide] | 0.44 |
| Cc1cc(C(=O)N(C)[C@H](CN2CCC(O)CC2)C(C)C)ccc1F [Example 24, (S)-4-Fluoro-N-(1-(4-hydroxypiperidin-1-yl)-3-methylbutan-2-yl)-N,3-dimethylbenzamide] | 4 |
| Cc1cc(C(=O)N(C)[C@@H](CN2CCC(O)CC2)C(C)C)ccc1F [Example 25, (R)-4-Fluoro-N-(1-(4-hydroxypiperidin-1-yl)-3-methylbutan-2-yl)-N,3-dimethylbenzamide] | 17 |
| Cc1cc(C(=O)N(C)[C@H](CN2CCC(C#N)CC2)C(C)C)ccc1F [Example 26, (S)—N-(1-(4-Cyanopiperidin-1-yl)-3-methylbutan-2-yl)-4-fluoro-N,3-dimethylbenzamide] | 7 |
| CCC[C@@H](CN1CC(OC)C1)N(C)C(=O)c1ccc(Cl)cc1 [Example 31.2, (S)-4-Chloro-N-(1-(3-methoxyazetidin-1-yl)pentan-2-yl)-N-methylbenzamide] | 5.9 |
| CCCC[C@@H](CN1CC(O)C1)N(C)C(=O)c1ccc(F)c(F)c1 [Example 33.2, 3,4-Difluoro-N-[(2S)-1-(3-hydroxyazetidin-1-yl)hexan-2-yl]-N-methylbenzamide] | 0.32 |
| CCCC[C@@H](CN1CC(O)C1)N(C)C(=O)c1ccc(C#N)cc1F [Example 33.3, 4-Cyano-2-fluoro-N-[(2S)-1-(3-hydroxyazetidin-1-yl)hexan-2-yl]-N-methylbenzamide] | 0.84 |
| CCCC[C@@H](CN1CC(O)C1)N(C)C(=O)c1ccccc1 [Example 33.5, N-[(2S)-1-(3-Hydroxyazetidin-1-yl)hexan-2-yl]-N-methylbenzamide] | 1 |
| CCCC[C@@H](CN1CC(O)C1)N(C)C(=O)c1cc(F)ccc1F [Example 33.9, 2,5-Difluoro-N-[(2S)-1-(3-hydroxyazetidin-1-yl)hexan-2-yl]-N-methylbenzamide] | 4.3 |
| CCCC[C@@H](CN1CC(O)C1)N(C)C(=O)c1cccc(C(F)F)c1 [Example 33.10, 3-(Difluoromethyl)-N-[(2S)-1-(3-hydroxyazetidin-1-yl)hexan-2-yl]-N-methylbenzamide] | 1.1 |
| CCC[C@@H](CN1CC(O)C1)N(C(=O)c1ccc(F)c(F)c1)C(C)C [Example 34.2, 3,4-Difluoro-N-[(2S)-1-(3-hydroxyazetidin-1-yl)pentan-2-yl]-N-(propan-2-yl)benzamide] | 11 |
| CN(C(=O)c1ccc(C#N)cc1)[C@@H](CN1CC(O)C1)C1CCC1 [Example 35.2, 4-Cyano-N-[(1R)-1-cyclobutyl-2-(3-hydroxyazetidin-1-yl)ethyl]-N-methylbenzamide] | 14 |
